Experimental data published in ChEMBL document CHEMBL5506059, “Cyanomethylquinolones as a New Class of Potential Multitargeting Broad-Spectrum Antibacterial Agents” (J Med Chem, 2024).
Values after ≈ are worked out from the molar mass of the structure shown. Active and inactive are the calls of the source. The calls are words filed in the database; no cut-off is given here.

Assays:
Staphylococcus aureus [1] = experiment: Antibacterial activity against Staphylococcus aureus ATCC 29213 assessed as inhibition of bacterial growth incubated for 24 hrs; assay type: functional
Staphylococcus aureus [2] = experiment: Antibacterial activity against methicillin resistant Staphylococcus aureus clinical isolate assessed as inhibition of bacterial growth incubated for 24 hrs; assay type: functional
Staphylococcus aureus [3] = experiment: Antibacterial activity against Staphylococcus aureus ATCC 12600 assessed as inhibition of bacterial growth incubated for 24 hrs; assay type: functional
Streptococcus pyogenes = experiment: Antibacterial activity against Streptococcus pyogenes ATCC 19615 assessed as inhibition of bacterial growth incubated for 24 hrs; assay type: functional
Staphylococcus aureus [4] = experiment: Resistance development in ciprofloxacin-treated methicillin resistant Staphylococcus aureus assessed as increase in MIC measured after 15th generation; assay type: functional, organism-based
Enterococcus faecium = experiment: Antibacterial activity against Enterococcus faecium ATCC 19434 assessed as inhibition of bacterial growth incubated for 24 hrs; assay type: functional
Staphylococcus aureus [5] = experiment: Resistance development in ciprofloxacin-treated Staphylococcus aureus ATCC 6538 assessed as increase in MIC measured after 15th generation; assay type: functional, organism-based
Staphylococcus aureus [6] = experiment: Antibacterial activity against Staphylococcus aureus ATCC 6538 assessed as inhibition of bacterial growth incubated for 24 hrs; assay type: functional
Enterococcus faecalis [7] = experiment: Antibacterial activity against vancomycin-resistant Enterococcus faecalis clinical isolate p1-2007225053 assessed as inhibition of bacterial growth incubated for 24 hrs; assay type: functional
Pseudomonas aeruginosa [8] = experiment: Resistance development in ciprofloxacin-treated Pseudomonas aeruginosa ATCC 27853 assessed as increase in MIC measured after 15th generation; assay type: functional, organism-based
Enterococcus faecalis [9] = experiment: Antibacterial activity against vancomycin-resistant Enterococcus faecalis clinical isolate p1-2007226001 assessed as inhibition of bacterial growth incubated for 24 hrs; assay type: functional
Staphylococcus aureus [10] = experiment: Antibacterial activity against Staphylococcus aureus CMCC(B)26003 assessed as inhibition of bacterial growth incubated for 24 hrs; assay type: functional
Pseudomonas aeruginosa [11] = experiment: Antibacterial activity against Pseudomonas aeruginosa ATCC 27853 assessed as inhibition of bacterial growth incubated for 24 hrs; assay type: functional
Escherichia coli [12] = experiment: Antibacterial activity against Escherichia coli ATCC 25922 assessed as inhibition of bacterial growth incubated for 24 hrs; assay type: functional
Pseudomonas aeruginosa [13] = experiment: Antibacterial activity against Pseudomonas aeruginosa clinical isolate assessed as inhibition of bacterial growth incubated for 24 hrs; assay type: functional
[14] = tested on: Staphylococcus epidermidis; experiment: Antibacterial activity against Staphylococcus epidermidis ATCC 12228 assessed as inhibition of bacterial growth incubated for 24 hrs; assay type: functional
Staphylococcus aureus [15] = experiment: Antibacterial activity against Staphylococcus aureus ATCC 25923 assessed as inhibition of bacterial growth incubated for 24 hrs; assay type: functional
Klebsiella pneumoniae = experiment: Antibacterial activity against Klebsiella pneumoniae clinical isolate assessed as inhibition of bacterial growth incubated for 24 hrs; assay type: functional
Pseudomonas aeruginosa [16] = experiment: Resistance development in ciprofloxacin-treated Pseudomonas aeruginosa assessed as increase in MIC measured after 15th generation; assay type: functional, organism-based
Acinetobacter baumannii = experiment: Antibacterial activity against Acinetobacter baumannii clinical isolate assessed as inhibition of bacterial growth incubated for 24 hrs; assay type: functional
Staphylococcus aureus [17] = experiment: Antibacterial activity against Staphylococcus aureus clinical isolate assessed as inhibition of bacterial growth incubated for 24 hrs; assay type: functional
Enterococcus faecalis [18] = experiment: Antibacterial activity against Enterococcus faecalis clinical isolate assessed as inhibition of bacterial growth incubated for 24 hrs; assay type: functional
Streptococcus pneumoniae = experiment: Antibacterial activity against Streptococcus pneumoniae ATCC 6305 assessed as inhibition of bacterial growth incubated for 24 hrs; assay type: functional
Escherichia coli [19] = experiment: Antibacterial activity against Escherichia coli clinical isolate assessed as inhibition of bacterial growth incubated for 24 hrs; assay type: functional
Staphylococcus aureus [20] = experiment: Antibacterial activity against methicillin-resistant Staphylococcus aureus ATCC 43300 assessed as inhibition of bacterial growth incubated for 24 hrs; assay type: functional
Staphylococcus aureus [21] = experiment: Antibacterial activity against Staphylococcus aureus CMCC(B)26001 assessed as inhibition of bacterial growth incubated for 24 hrs; assay type: functional
Staphylococcus aureus [22] = experiment: Induction of morphological changes in methicillin resistant Staphylococcus aureus at 2 ug/ml incubated for 3 hrs by SEM analysis; assay type: functional, organism-based; conditions: dose 2.0 µg/ml
Cell membrane [23] = experiment: Induction of cell membrane permeability in Pseudomonas aeruginosa assessed as increase in fluorescence intensity at 1 ug/ml incubated for 6 hrs by PI staining based fluorescence analysis; assay type: cell membranes; conditions: dose 1.0 µg/ml
Staphylococcus aureus [24] = experiment: Antibiofilm activity in methicillin resistant Staphylococcus aureus assessed as biofilm eradication at 1 to 2 ug/ml measured after 24 hrs by crystal violet staining based analysis; assay type: functional, organism-based; conditions: dose 1-2 µg/ml
Pseudomonas aeruginosa [25] = experiment: Induction of morphological changes in Pseudomonas aeruginosa at 2 ug/ml incubated for 3 hrs by SEM analysis; assay type: functional, organism-based; conditions: dose 2.0 µg/ml
Cell membrane [26] = experiment: Induction of cell membrane permeability in methicillin-resistant Staphylococcus aureus assessed as increase in fluorescence intensity at 1 ug/ml incubated for 6 hrs by PI staining based fluorescence analysis; assay type: cell membranes; conditions: dose 1.0 µg/ml
Pseudomonas aeruginosa [27] = experiment: Induction of intracellular ROS generation in Pseudomonas aeruginosa assessed as increase in fluorescence intensity at 2 ug/ml incubated for 6 hrs in presence of N-acetyl-L-cysteine by DCFH-DA dye based fluorescence analysis; assay type: functional, organism-based; conditions: dose 2.0 µg/ml
Cell membrane [28] = experiment: Induction of cell membrane depolarization in methicillin-resistant Staphylococcus aureus assessed as increase in fluorescence intensity at 1 ug/ml measured for 30 mins by DiSC35 dye based fluorescence analysis; assay type: cell membranes; conditions: dose 1.0 µg/ml
Cell membrane [29] = experiment: Induction of cell membrane depolarization in Pseudomonas aeruginosa assessed as increase in fluorescence intensity at 1 ug/ml measured for 30 mins by DiSC35 dye based fluorescence analysis; assay type: cell membranes; conditions: dose 1.0 µg/ml
Pseudomonas aeruginosa [30] = experiment: Induction of intracellular ROS generation in Pseudomonas aeruginosa assessed as increase in fluorescence intensity at 2 ug/ml incubated for 6 hrs by DCFH-DA dye based fluorescence analysis; assay type: functional, organism-based; conditions: dose 2.0 µg/ml
Pseudomonas aeruginosa [31] = experiment: Antibiofilm activity in Pseudomonas aeruginosa assessed as biofilm eradication at 1 to 2 ug/ml measured after 24 hrs by crystal violet staining based analysis; assay type: functional, organism-based; conditions: dose 1-2 µg/ml
Pseudomonas aeruginosa [32] = experiment: Bactericidal activity against Pseudomonas aeruginosa assessed as increase in fluorescence intensity at 2 ug/ml incubated for 6 hrs by PI staining based fluorescence analysis; assay type: functional, organism-based; conditions: dose 2.0 µg/ml
Staphylococcus aureus [33] = experiment: Bactericidal activity against methicillin-resistant Staphylococcus aureus assessed as increase in fluorescence intensity at 2 ug/ml incubated for 6 hrs by PI staining based fluorescence analysis; assay type: functional, organism-based; conditions: dose 2.0 µg/ml

CCn1cc(C(=O)O)c(=O)c2cc(F)c(N3CCNCC3)cc21 [NORFLOXACIN]
MIC (Staphylococcus aureus [1]): 4 µg/mL (≈ 12.5 µM) | MIC (Staphylococcus aureus [2]): 8 µg/mL (≈ 25.1 µM) | MIC (Staphylococcus aureus [3]): 2 µg/mL (≈ 6.26 µM) | MIC (Streptococcus pyogenes): 32 µg/mL (≈ 100 µM) | Activity (Staphylococcus aureus [4]): Active | MIC (Enterococcus faecium): 4 µg/mL (≈ 12.5 µM) | Activity (Staphylococcus aureus [5]): Active | MIC (Staphylococcus aureus [6]): 1 µg/mL (≈ 3.13 µM) | MIC (Enterococcus faecalis [7]): 1 µg/mL (≈ 3.13 µM) | Activity (Pseudomonas aeruginosa [8]): Active | MIC (Enterococcus faecalis [9]): 8 µg/mL (≈ 25.1 µM) | MIC (Staphylococcus aureus [10]): 0.5 µg/mL (≈ 1.57 µM) | MIC (Pseudomonas aeruginosa [11]): 8 µg/mL (≈ 25.1 µM) | MIC (Escherichia coli [12]): 4 µg/mL (≈ 12.5 µM) | MIC (Pseudomonas aeruginosa [13]): 8 µg/mL (≈ 25.1 µM) | MIC [14]: 1 µg/mL (≈ 3.13 µM) | MIC (Staphylococcus aureus [15]): 8 µg/mL (≈ 25.1 µM) | MIC (Klebsiella pneumoniae): 8 µg/mL (≈ 25.1 µM) | Activity (Pseudomonas aeruginosa [16]): Active | MIC (Acinetobacter baumannii): 2 µg/mL (≈ 6.26 µM) | MIC (Staphylococcus aureus [17]): 8 µg/mL (≈ 25.1 µM) | MIC (Enterococcus faecalis [18]): 8 µg/mL (≈ 25.1 µM) | MIC (Streptococcus pneumoniae): 0.5 µg/mL (≈ 1.57 µM) | MIC (Escherichia coli [19]): 4 µg/mL (≈ 12.5 µM) | MIC (Staphylococcus aureus [20]): 4 µg/mL (≈ 12.5 µM) | MIC (Staphylococcus aureus [21]): 0.25 µg/mL (≈ 0.783 µM)

O=C(O)c1cn(C2CC2)c2cc(N3CCNCC3)c(F)cc2c1=O [CIPROFLOXACIN]
Activity (Staphylococcus aureus [22]): Active | MIC (Staphylococcus aureus [1]): 0.5 µg/mL (≈ 1.51 µM) | Activity (Cell membrane [23]): inactive | MIC (Streptococcus pyogenes): 16 µg/mL (≈ 48.3 µM) | Activity (Staphylococcus aureus [4]): Active | Activity (Staphylococcus aureus [24]): inactive | Activity (Pseudomonas aeruginosa [25]): Active | MIC (Enterococcus faecium): 2 µg/mL (≈ 6.04 µM) | Activity (Staphylococcus aureus [5]): Active | MIC (Staphylococcus aureus [6]): 0.5 µg/mL (≈ 1.51 µM) | Activity (Pseudomonas aeruginosa [8]): Active | Activity (Cell membrane [26]): inactive | Activity (Pseudomonas aeruginosa [27]): inactive | Activity (Cell membrane [28]): inactive | Activity (Cell membrane [29]): inactive | MIC [14]: 0.125 µg/mL (≈ 0.377 µM) | MIC (Staphylococcus aureus [15]): 1 µg/mL (≈ 3.02 µM) | Activity (Pseudomonas aeruginosa [30]): Active | Activity (Pseudomonas aeruginosa [31]): inactive | Activity (Pseudomonas aeruginosa [32]): Active | Activity (Pseudomonas aeruginosa [16]): Active | Activity (Staphylococcus aureus [33]): Active | MIC (Streptococcus pneumoniae): 0.125 µg/mL (≈ 0.377 µM)
